Counter-ions that a name gives are not always drawn.
Molecular target: T1, human TRPV4 (Homo sapiens, UniProt Q9HBA0)
T1 construct: expressed in transfected cells
Experiment: Fluorometric cell-based Ca2+ flux assay, HEK-293 cells stably overexpressing human TRPV4
Details: HEK-293 stably overexpressing human TRPV4; agonist GSK1016790A 30 nM
Experimental: Fluorometric cell-based Ca^2+ flux assays were performed to assess TRPV4 antagonist activity and determine potency (IC50 values) in human embryonic kidney-293 cells (HEK-293) that stably overexpress human TRPV4. The assays were performed according to methods described in: Deering-Rice, C. E., Johansen, M. E., Roberts, J. K., Thomas, K. C., Romero, E. G., Lee, J., Yost, G. S., Veranth, J. M., and Reilly, C. A. (2012), Mol. Pharmacol. 81(3), 411-419; Shapiro, D., Deering-Rice, C. E., Romero, E. G., Hughen, R. W., Light, A. R., Veranth, J. M., and Reilly, C. A. (2013), Chem Res. Toxicol., 26, 750-758; and Deering-Rice, C. E., Mitchell, V. K., Romero, E. G., Abdel Aziz, M. H., and Reilly, C. A. (2014), Pharmacol. Res. & Perspectives. 2(5), 1-10.
The HEK-293 cells stably overexpressing human TRPV4 were grown to confluence in 2% (w/v) gelatin-coated 96-well plates in DMEM:F12 media supplemented with 5% fetal bovine serum, 1× penicillin/streptomycin (Invitrogen) and Geneticin (300 μg/mL).
The HEK-293 cells were prepared for assay by replacing the growth media with a 1:1 solution of LHC-9 and Fluo 4-Direct (Invitrogen) reagent containing Fluo 4-AM, pluronic F-127, probenecid, and a proprietary quencher dye. The cells were then incubated at 37° C. for 1 h in a cell culture incubator. The cells were subsequently washed by replacing the loading solution with LHC-9 containing 1 mM water-soluble probenecid (Invitrogen), 750 μM Trypan Red (ATT Bioquest), and a test compound (at various concentrations). The cells were incubated for an additional 30 minutes at 37° C. to allow for Fluo 4-AM cleavage and activation, as well as equilibration to both the test compounds and Fluo 4.
An agonist treatment solution (90 nM GSK1016790A, a potent activator of TRPV4) was prepared in LHC9 at 3× concentration and 25 μL was added to 50 μL of media on the cells in 96 well plates, providing a final concentration of 30 nM. Changes in cellular fluorescence were monitored with a BMG Labtech NOVOStar fluorescence plate reader for 1 minute at 37° C. Data were quantified as the maximum rate of change in fluorescence intensity (max ΔF/s), corrected for media only treatment (negative control), and represented as the percentage of response relative to the no antagonist control. A minimum of three replicates were used for each treatment condition, with a minimum of 8 concentrations to derive the IC50 values reported for each antagonist. The IC50 values for each antagonist, which are shown in Table 4 below, were calculated according to methods described in the assays were performed according to methods described in: Deering-Rice, C. E., Johansen, M. E., Roberts, J. K., Thomas, K. C., Romero, E. G., Lee, J., Yost, G. S., Veranth, J. M., and Reilly, C. A. (2012), Mol. Pharmacol. 81(3), 411-419; Shapiro, D., Deering-Rice, C. E., Romero, E. G., Hughen, R. W., Light, A. R., Veranth, J. M., and Reilly, C. A. (2013), Chem Res. Toxicol., 26, 750-758; and Deering-Rice, C. E., Mitchell, V. K., Romero, E. G., Abdel Aziz, M. H., and Reilly, C. A. (2014), Pharmacol. Res. & Perspectives. 2(5), 1-10.

T1 sequence (Q9HBA0 whole entry): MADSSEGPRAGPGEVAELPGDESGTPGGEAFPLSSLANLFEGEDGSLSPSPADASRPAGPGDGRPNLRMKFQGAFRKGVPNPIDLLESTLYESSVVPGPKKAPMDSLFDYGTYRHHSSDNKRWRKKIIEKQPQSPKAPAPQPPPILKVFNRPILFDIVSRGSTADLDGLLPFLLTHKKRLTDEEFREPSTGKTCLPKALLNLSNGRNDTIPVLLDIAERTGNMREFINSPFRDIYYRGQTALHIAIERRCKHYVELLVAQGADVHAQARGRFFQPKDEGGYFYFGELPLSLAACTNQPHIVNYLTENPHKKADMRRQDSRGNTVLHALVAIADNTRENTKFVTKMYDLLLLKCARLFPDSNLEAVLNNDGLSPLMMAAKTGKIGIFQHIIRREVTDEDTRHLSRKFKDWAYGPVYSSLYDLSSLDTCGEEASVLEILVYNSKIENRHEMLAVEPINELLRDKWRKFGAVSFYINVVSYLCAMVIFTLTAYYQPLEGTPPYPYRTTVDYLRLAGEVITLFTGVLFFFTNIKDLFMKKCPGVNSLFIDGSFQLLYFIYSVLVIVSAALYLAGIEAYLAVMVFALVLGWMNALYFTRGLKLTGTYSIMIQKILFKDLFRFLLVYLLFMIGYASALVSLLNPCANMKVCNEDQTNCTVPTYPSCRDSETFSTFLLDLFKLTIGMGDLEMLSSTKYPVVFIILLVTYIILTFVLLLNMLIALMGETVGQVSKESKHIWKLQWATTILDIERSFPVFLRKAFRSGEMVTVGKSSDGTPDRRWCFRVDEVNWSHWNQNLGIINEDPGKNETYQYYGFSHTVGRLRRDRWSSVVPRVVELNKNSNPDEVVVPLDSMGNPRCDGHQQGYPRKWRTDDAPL

IC50 [nM] | Compound
> 1000 | CCOc1cc(OCC2(COC(=O)c3ccc(Br)cc3)CN(S(=O)(=O)c3ccc(Cl)cc3Cl)C2)ccc1C#N [Compound 99, (3-((4-Cyano-3-ethoxyphenoxy)methyl)-1-((2,4-dichlorophenyl)sulfonyl)azetidin-3-yl)methyl 4-bromobenzoate]
1 | CCNCC1(COc2ccc(C#N)c(F)c2)CN(S(=O)(=O)c2ccc(Cl)cc2Cl)C1 [Compound 25, 4-((1-((2,4-Dichlorophenyl)sulfonyl)-3-((ethylamino)methyl)azetidin-3-yl)methoxy)-2-fluorobenzonitrile hydrochloride]
> 302 | N#Cc1ccc(OCC2(CO)CN(S(=O)(=O)c3ccc(Cl)cc3)C2)cc1F [Compound 84, 4-((1-((4-Chlorophenyl)sulfonyl)-3-(hydroxymethyl)azetidin-3-yl)methoxy)-2-fluorobenzonitrile]
10000 | Cc1nn(C)cc1S(=O)(=O)N1CC(CO)(COc2ccc(C#N)c(F)c2)C1 [Compound 66, 4-((1-((1,3-Dimethyl-1H-pyrazol-4-yl)sulfonyl)-3-(hydroxymethyl)azetidin-3-yl)methoxy)-2-fluorobenzonitrile]
520 | Cc1cc(Cl)ccc1S(=O)(=O)N1CC(CO)(COc2ccc(C#N)c(F)c2)C1 [Compound 74, 4-((1-((4-Chloro-2-methylphenyl)sulfonyl)-3-(hydroxymethyl)azetidin-3-yl)methoxy)-2-fluorobenzonitrile]
472 | Cc1ccc(S(=O)(=O)N2CC(CO)(COc3ccc(C#N)c(F)c3)C2)c(C)c1 [Compound 62, 4-((1-((2,4-Dimethylphenyl)sulfonyl)-3-(hydroxymethyl)azetidin-3-yl)methoxy)-2-fluorobenzonitrile]
~5000 | O=S(=O)(c1ccc(Cl)cc1Cl)N1CC(CO)(COc2ccncc2)C1 [Compound 91, (1-((2,4-Dichlorophenyl)sulfonyl)-3-((pyridin-4-yloxy)methyl)azetidin-3-yl)methanol]
0.7 | N#Cc1ccc(OCC2(CNC3CCOCC3)CN(S(=O)(=O)c3ccc(Cl)cc3Cl)C2)cc1F [Compound 18, 4-((1-((2,4-Dichlorophenyl)sulfonyl)-3-(((tetrahydro-2H-pyran-4-yl)amino)methyl)azetidin-3-yl)methoxy)-2-fluorobenzonitrile hydrochloride]
231 | COc1ccc(S(=O)(=O)N2CC(CO)(COc3ccc(C#N)c(F)c3)C2)c(Br)c1 [Compound 102, 4-((1-((2-Bromo-4-methoxyphenyl)sulfonyl)-3-(hydroxymethyl)azetidin-3-yl)methoxy)-2-fluorobenzonitrile]
5.2 | N#Cc1ccc(OCC2(CNCC3CCOCC3)CN(S(=O)(=O)c3ccc(Cl)cc3Cl)C2)cc1F [Compound 29, 4-((1-((2,4-Dichlorophenyl)sulfonyl)-3-((((tetrahydro-2H-pyran-4-yl)methyl)amino)methyl)azetidin-3-yl)methoxy)-2-fluorobenzonitrile hydrochloride]
4.1 | N#Cc1ccc(OCC2(CNCC3CCOC3)CN(S(=O)(=O)c3ccc(Cl)cc3Cl)C2)cc1F (centres unmarked) [Compound 23, 4-((1-((2,4-Dichlorophenyl)sulfonyl)-3-((((tetrahydrofuran-3-yl)methyl)amino)methyl)azetidin-3-yl)methoxy)-2-fluorobenzonitrile hydrochloride]
0.41 | N#Cc1ccc(OCC2(CNC3CCOCC3)CN(S(=O)(=O)c3ccccc3C#N)C2)cc1F [Compound 116, 4-((1-((2-Cyanophenyl)sulfonyl)-3-(((tetrahydro-2H-pyran-4-yl)amino)methyl)azetidin-3-yl)methoxy)-2-fluorobenzonitrile]
252 | CNCC(=O)NCC1(COc2ccc(C#N)c(F)c2)CN(S(=O)(=O)c2ccc(Cl)cc2Cl)C1 [Compound 48, N-((3-((4-Cyano-3-fluorophenoxy)methyl)-1-((2,4-dichlorophenyl)sulfonyl)azetidin-3-yl)methyl)-2-(methylamino)acetamide]
> 27 | Cc1ccc(S(=O)(=O)N2CC(CO)(COc3ccc(C#N)c(F)c3)C2)c(Cl)c1 [Compound 82, 4-((1-((2-Chloro-4-methylphenyl)sulfonyl)-3-(hydroxymethyl)azetidin-3-yl)methoxy)-2-fluorobenzonitrile]
23 | N#Cc1ccc(OCC2(NC(=O)CN)CN(S(=O)(=O)c3ccc(Cl)cc3Cl)C2)cc1F [Compound 55, 2-Amino-N-(3-((4-cyano-3-fluorophenoxy)methyl)-1-((2,4-dichlorophenyl)sulfonyl)azetidin-3-yl)acetamide]
1000 to 3000 | N#Cc1cccc(OCC2(CO)CN(S(=O)(=O)c3ccc(Cl)cc3Cl)C2)c1 [Compound 89, 3-((1-((2,4-Dichlorophenyl)sulfonyl)-3-(hydroxymethyl)azetidin-3-yl)methoxy)benzonitrile]
270 | N#Cc1ccc(OCC2(CO)CN(S(=O)(=O)c3ccc(Cl)cc3Cl)C2)cc1 [Compound 3, 4-((1-((2,4-Dichlorophenyl)sulfonyl)-3-(hydroxymethyl)azetidin-3-yl)methoxy)benzonitrile]
100 to 500 | N#Cc1ccc(OCC2(CO)CN(S(=O)(=O)c3ccc(Cl)cc3F)C2)cc1F [Compound 78, 4-((1-((4-Chloro-2-fluorophenyl)sulfonyl)-3-(hydroxymethyl)azetidin-3-yl)methoxy)-2-fluorobenzonitrile]
52 | N#Cc1ccc(OCC2(CNC(=O)CN)CN(S(=O)(=O)c3ccc(Cl)cc3Cl)C2)cc1F [Compound 46, 2-Amino-N-((3-((4-cyano-3-fluorophenoxy)methyl)-1-((2,4-dichlorophenyl)sulfonyl)azetidin-3-yl)methyl)acetamide]
> 1300 | Cc1cc(C#N)ccc1S(=O)(=O)N1CC(CO)(COc2ccc(C#N)c(F)c2)C1 [Compound 79, 4-((1-((4-Cyano-2-methylphenyl)sulfonyl)-3-(hydroxymethyl)azetidin-3-yl)methoxy)-2-fluorobenzonitrile]
0.29 | N#Cc1ccc(OCC2(CN[C@H]3CC[C@H](O)CC3)CN(S(=O)(=O)c3ccccc3C#N)C2)cc1F [Compound 112, 4-((1-((2-Cyanophenyl)sulfonyl)-3-(((trans-4-hydroxycyclohexyl)amino)methyl)azetidin-3-yl)methoxy)-2-fluorobenzonitrile]
1.6 | C[C@H](O)CNCC1(COc2ccc(C#N)c(F)c2)CN(S(=O)(=O)c2ccccc2C#N)C1 [Compound 117, (S)-4-((1-((2-Cyanophenyl)sulfonyl)-3-(((2-hydroxypropyl)amino)methyl)azetidin-3-yl)methoxy)-2-fluorobenzonitrile]
145 | COc1ccc(S(=O)(=O)N2CC(CO)(COc3ccc(C#N)c(F)c3)C2)c(C#N)c1 [Compound 106, 4-((1-((2-Cyano-4-methoxyphenyl)sulfonyl)-3-(hydroxymethyl)azetidin-3-yl)methoxy)-2-fluorobenzonitrile]
2250 | CNCCN(C)C(=O)C1(COc2ccc(C#N)cc2)CN(S(=O)(=O)c2ccc(Cl)cc2Cl)C1 [Compound 5, 3-((4-Cyanophenoxy)methyl)-1-((2,4-dichlorophenyl)sulfonyl)-N-methyl-N-(2-(methylamino)ethyl)azetidine-3-carboxamide]
4600 | CNC(=O)C1(COc2ccc(C#N)cc2)CN(S(=O)(=O)c2ccc(Cl)cc2Cl)C1 [Compound 4, 3-((4-Cyanophenoxy)methyl)-1-((2,4-dichlorophenyl)sulfonyl)-N-methylazetidine-3-carboxamide]
> 2500 | Cc1cc(F)ccc1S(=O)(=O)N1CC(CO)(COc2ccc(C#N)c(F)c2)C1 [Compound 77, 2-Fluoro-4-((1-((4-fluoro-2-methylphenyl)sulfonyl)-3-(hydroxymethyl)azetidin-3-yl)methoxy)benzonitrile]
